In patent US20240167030A1, “METHODS AND COMPOSITIONS FOR ACCELERATING OLIGODENDROCYTE MATURATION” (Case Western Reserve University, priority 2021, published 2024):

Assays:
Type in all cases: cell-based, mouse
[1] = system: SOX6 biomolecular condensates; assay: confocal immunofluorescence coupled with RNA-FISH of Sox6 condensates in intermediate oligodendrocytes; details: upon addition of the drug
Text: Given the massive density of SOX6, an inherently disordered protein, at super-enhancer associated genes that increase sharply in intermediate oligodendrocytes and then decrease in myelinating oligodendrocytes, it was hypothesized that these regions represent SOX6 biomolecular condensates that stabilize, not inhibit, the intermediate oligodendrocyte state (FIGS. 8F and 8G) (Daneshvar et al., 2020; Henninger et al., 2020; Hnisz et al., 2017; Sabari et al., 2018). Performing high resolution confocal microscopy of immunofluorescence coupled with RNA-FISH confirmed Sox6 puncta in intermediate oligodendrocytes that co-localized with the predicted Sox6 aggregate gene Bcas1, whereas this co-localization was severely diminished at the non-aggregate gene Gapdh.

SOX6 = assay: Western blot of SOX6 in CRISPR-Cas9 knockout OPCs; details: knockout OPCs compared to non-targeting control (sgNTC)
Text: Generation of mouse CRISPR KO OPCs: CRISPR knockout (KO) OPCs were created following a similar protocol used previously (Allan et al., 2020; Tripathi et al., 2019). In brief, guides were selected from the Brie library (Doench et al., 2016), cloned into the linearized CRISPRv2 backbone (Addgene 52961) (Sanjana et al., 2014), and sequence verified by sanger sequencing. HEK293T cells (Clonetech) were than transfected using lenti-X shots (manufacturer's protocol, Clonetech). Transfection media was replaced with N2B27 base media the following day. Lentivirus containing N2B27 was then collected after an additional 2 days, filtered, and supplemented with OPC growth factors PDGFA and FGF2 and added to OPCs at a ratio of 1:2 viral media to OPC growth media. The viral media was switched out for virus-free OPC growth the next day and allowed to recover for an additional 2 days. […]
Western blot: For cell culture derived protein samples, at least 1 million OPCs were collected and lysed in RIPA buffer (Sigma) supplemented with protease and phosphatase inhibitor (78441, Thermo Fisher) for at least 15 minutes and cleared by centrifugation at 13,000 g at 4° C. for 15 minutes. Protein concentrations were determined using the Bradford assay (Bio-Rad Laboratories). […] Membranes were then imaged and analyzed using Image Studio™ software. […]

oligodendrocytes = assay: RNA-seq gene set enrichment analysis (GSEA) of SOX6 knockout oligodendrocytes; details: SOX6 knockout vs control (sgNTC) oligodendrocytes, day 3 of differentiation
Text: Generation of mouse CRISPR KO OPCs: CRISPR knockout (KO) OPCs were created following a similar protocol used previously (Allan et al., 2020; Tripathi et al., 2019). In brief, guides were selected from the Brie library (Doench et al., 2016), cloned into the linearized CRISPRv2 backbone (Addgene 52961) (Sanjana et al., 2014), and sequence verified by sanger sequencing. HEK293T cells (Clonetech) were than transfected using lenti-X shots (manufacturer's protocol, Clonetech). Transfection media was replaced with N2B27 base media the following day. Lentivirus containing N2B27 was then collected after an additional 2 days, filtered, and supplemented with OPC growth factors PDGFA and FGF2 and added to OPCs at a ratio of 1:2 viral media to OPC growth media. The viral media was switched out for virus-free OPC growth the next day and allowed to recover for an additional 2 days. At this point, infected OPCs were selected for 96 hours in OPC growth media supplemented with a lethal dose of puromcyin (500 ng/mL). OPCs were allowed to recover in selection free media for at least 24 hours prior to being aliquoted and frozen down. For all experiments, infected CRISPR KO and non-targeting control OPCs were derived from the same original batch of EpiSC-derived mouse OPCs. qPCR was performed to validate a reduction of gene targets for each batch of CRISPR KO OPCs generated.
Bulk RNA-seq sample preparation and alignment: OPCs were lysed in TRIzol and RNA was isolated as described for qPCR. Purified RNA was then submitted to Novogene for library preparation and sequencing on the Illumina NovaSeq (150 bp paired end). For gene expression analysis, reads were aligned to the mm10 genome and quantified in transcripts per million (TPM) values using salmon 0.14.1 (github dot com slash COMBINE-lab slash salmon). Transcripts were summarized as gene-level TPM abundances with tximport. A gene with TPM>1 was considered expressed. Differential expression analysis was performed using DESEQ2 (bioconductor.org slash packages slash release slash bioc slash html slash DESeq2 dot html). Significant genes were called based on p-adj and fold change values as described in the results section.
RNA-seq was then performed on SOX6 knockout OPCs and differentiating oligodendrocyte cultures compared to non-targeting controls (FIGS. 10B and 11A). In agreement with binding at nearly all super-enhancers in OPCs, Sox6 knockout OPCs harbored a reduction in OPC signature genes and transcription factors such as Cspg4 and Sox10 (FIGS. 11A-11C). In differentiating oligodendrocytes, loss of SOX6 led to a reduction in Sox6 condensate gene expression (FIGS. 10B, 10C, and 11D). In agreement with these condensate genes stabilizing genes transiently expressed by intermediate oligodendrocytes, SOX6 knockout oligodendrocytes harbored a significant reduction in intermediate oligodendrocyte gene expression (FIGS. 10D and 11E).

Compound | effect on Sox6 biomolecular condensates [1] | SOX6 expression (SOX6) | GSEA of SOX6 aggregate (condensate) genes (oligodendrocytes) | GSEA of in vivo OPC signature genes (oligodendrocytes) | GSEA of in vivo intermediate oligodendrocyte signature genes (oligodendrocytes) | GSEA of in vivo myelinating oligodendrocyte signature genes (oligodendrocytes)
Cc1sc2c(c1C)C(c1ccc(Cl)cc1)=N[C@@H](CC(=O)OC(C)(C)C)c1nnc(C)n1-2 [JQ1] | dissolved |  |  |  |  | 
sgSox6 g1: single guide RNA for CRISPR-Cas9 SOX6 knockout, sequence TTGACGGAATGAACTGTACG (listed as DNA, chemistry not given here) |  | strong reduction | significant depletion | significant depletion | significant depletion | enrichment
sgSox6 g2: single guide RNA for CRISPR-Cas9 SOX6 knockout, sequence AGAACACGCTTTGAGAACCT (listed as DNA, chemistry not given here) |  | strong reduction | significant depletion | significant depletion | significant depletion | enrichment
